# Molecular target: T1, human skin chymase (Homo sapiens, UniProt P23946)
# T1 construct: using human skin chymase (Cortex Biochem); purchased Cortex Biochem
# T1 sequence (P23946 22-247): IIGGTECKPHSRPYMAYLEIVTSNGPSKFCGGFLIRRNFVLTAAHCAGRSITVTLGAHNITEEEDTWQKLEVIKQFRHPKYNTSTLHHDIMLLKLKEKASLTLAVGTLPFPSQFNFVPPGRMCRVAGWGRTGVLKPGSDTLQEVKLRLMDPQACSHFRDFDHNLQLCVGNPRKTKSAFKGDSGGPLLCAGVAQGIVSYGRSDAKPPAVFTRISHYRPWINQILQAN
# Test: Enzyme-catalyzed hydrolysis assay (chymase inhibition)
# Format: biochemical
# Details: 10 nM enzyme, 0.7 mM Suc-Ala-Ala-Pro-Phe-pNa, pH 8.0, 37° C., 30 minutes
# Procedure: Enzyme-catalyzed hydrolysis rates were measured spectro-photometrically using human skin chymase (Cortex Biochem), a chromogenic substrate (Suc-Ala-Ala-Pro-Phe-pNa) (Bachem) in aqueous buffer (450 mM Tris, 1800 mM NaCl, pH 8.0), and a microplate reader (Molecular Devices). […] Percent inhibition was calculated by comparing the initial reaction slopes of the samples without inhibitor to those with inhibitor. IC50 values were determined using a four parameter fit logistics model. The term “NT” indicates a compound that was not tested.
row,Compound,IC50
1,"O=C(Nc1ccc2ccccc2c1OCC(=O)N1CCC(c2ccccc2)CC1)C(c1cccc2ccccc12)P(=O)(O)O (stereo not drawn) [Cpd 114, (Naphthalen-1-yl-{1-[2-oxo-2-(4-phenyl-piperidin-1-yl)-ethoxy]-naphthalen-2-ylcarbamoyl}-5 methyl)-phosphonic acid]",4.9 ± 1.34 µM
2,CP(=O)(O)C(C(=O)N/C=C/c1cccc(N)c1)c1csc2ccc(Cl)cc12 (stereo not drawn) [Cpd 172],0.041 ± 0.02 µM
3,COc1ccc(C2CCN(C(=O)c3sc4ccccc4c3C(C(=O)Nc3ccc4ccccc4c3)P(C)(=O)O)CC2)cc1 (stereo not drawn) [Cpd 35],0.235 ± 0.045 µM
4,"CP(=O)(O)C(C(=O)N/C=C/c1ccccc1O)c1csc2ccc(Cl)cc12 (stereo not drawn) [Cpd 149, {(5-Chloro-benzo[b]thiophen-3-yl)-[2-(2-hydroxy-phenyl)-vinylcarbamoyl]-methyl}-methyl-phosphinic acid]",0.043 µM
5,CC(=O)Oc1ccccc1/C=C/NC(=O)C(c1csc2ccc(Cl)cc12)P(C)(=O)O (stereo not drawn) [Cpd 148],0.23 ± 0.04 µM
6,CN(Cc1ccccc1)C(=O)c1cc2ccccc2cc1NC(=O)C(c1cccc2ccccc12)P(=O)(O)O (stereo not drawn) [Cpd 111],4.62 µM
7,"COC(=O)c1cc2ccccc2cc1NC(=O)C(c1cccc2ccccc12)P(=O)(O)O (stereo not drawn) [Cpd 75, 3-(2-Naphthalen-1-yl-2-phosphono-acetylamino)-naphthalene-2-carboxylic acid methyl ester]",1.4 ± 0.6 µM
8,O=C(Nc1cc2ccccc2cc1C(=O)N1CCC(c2nc3ccccc3s2)CC1)C(c1cccc2ccccc12)P(=O)(O)O (stereo not drawn) [Cpd 113],4.8 ± 1.69 µM
9,CP(=O)(O)C(C(=O)N/C=C/c1ccc(F)cc1)c1csc2ccc(Cl)cc12 (stereo not drawn) [Cpd 24],0.1 ± 0.033 µM
10,O=C(Nc1cc2ccccc2cc1NCCCCCc1ccccc1)C(c1cccc2ccccc12)P(=O)(O)O (stereo not drawn) [Cpd 110],4.45 µM
11,O=C(NC=Cc1ccc(O)cc1)C(c1csc2ccc(Cl)cc12)P(=O)(O)O (stereo not drawn) [Cpd 66],0.868 ± 0.13 µM
12,O=C(Nc1ccc2ccccc2c1)C(c1csc2ccc(Cl)cc12)P(=O)(O)CCCc1ccc(O)cc1 (stereo not drawn) [Cpd 43],0.35 ± 0.07 µM
13,COc1cccc(/C=C/NC(=O)C(c2csc3ccc(Cl)cc23)P(C)(=O)O)c1 (stereo not drawn) [Cpd 154],0.036 ± 0.05 µM
14,"O=C(Nc1ccc2ccccc2c1)C(c1csc2ccc(Br)cc12)P(=O)(O)O (stereo not drawn) [Cpd 23, [(5-Bromo-benzo[b]thiophen-3-yl)-(naphthalen-2-ylcarbamoyl)-methyl]-phosphonic acid]",0.1 ± 0.03 µM
15,CN(C(=O)c1cc2ccccc2cc1NC(=O)C(c1cccc2ccccc12)P(=O)(O)O)C1CCCC1 (stereo not drawn) [Cpd 91],2.32 µM
16,COc1ccc(C=CNC(=O)C(c2csc3ccc(Cl)cc23)P(=O)(O)O)cc1OC (stereo not drawn) [Cpd 49],0.43 ± 0.09 µM
17,O=C(NC=Cc1ccc(C(F)(F)F)cc1)C(c1csc2ccc(Cl)cc12)P(=O)(O)O (stereo not drawn) [Cpd 81],1.7 ± 0.21 µM
18,Cc1ccccc1C=CNC(=O)C(c1csc2ccc(Cl)cc12)P(C)(=O)O (stereo not drawn) [Cpd 155],0.34 ± 0.04 µM
19,"CN(C(=O)c1cc2ccccc2cc1NC(=O)C(c1cccc2ccccc12)P(=O)(O)O)C1CC=C(c2ccccc2)CC1 (stereo not drawn) [Cpd 46, ({3-[Methyl-(4-phenyl-cyclohex-3-enyl)-carbamoyl]-naphthalen-2-ylcarbamoyl}-naphthalen-1-yl-methyl)-phosphonic acid]",0.388 ± 0.116 µM

row,Compound,IC50
1,CP(=O)(O)C(C(=O)NC=Cc1ccccc1[N+](=O)[O-])c1csc2ccc(Cl)cc12 (stereo not drawn) [Cpd 147],1.44 ± 0.48 µM
2,"O=C(Nc1ccc2ccccc2c1)C(C1=CS(=O)(=O)c2ccc(Cl)cc21)P(=O)(O)O (stereo not drawn) [Cpd 86, [(5-Chloro-1,1-dioxo-1H-1λ^6-benzo[b]thiophen-3-yl)-(naphthalen-2-ylcarbamoyl)-methyl]-phosphonic acid]",1.9 ± 0.4 µM
3,"O=C(Nc1cc2ccccc2cc1OCc1ccccc1)C(c1cccc2ccccc12)P(=O)(O)O (stereo not drawn) [Cpd 122, [(3-Benzyloxy-naphthalen-2-ylcarbamoyl)-naphthalen-1-yl-methyl]-phosphonic acid]",5.94 ± 1.69 µM
4,"O=C(C=Cc1cc2ccccc2cc1NC(=O)C(c1cccc2ccccc12)P(=O)(O)O)NCc1ccccc1 (stereo not drawn) [Cpd 109, {[3-(2-Benzylcarbamoyl-vinyl)-naphthalen-2-ylcarbamoyl]-naphthalen-1-yl-methyl}-phosphonic acid]",4.4 µM
5,O=C(Nc1cc2ccccc2cc1C(=O)N1CCCC1c1ccccc1)C(c1cccc2ccccc12)P(=O)(O)O (stereo not drawn) [Cpd 131],7.68 µM
6,O=C(Nc1ccc2ccccc2c1)C(c1cn(CC=Cc2ccccc2)c2ccccc12)P(=O)(O)O (stereo not drawn) [Cpd 27],0.13 ± 0.02 µM
7,O=C(Nc1ccc2ccccc2c1)C(c1csc2ccc(Cl)cc12)P(=O)(O)CCCc1ccc2c(c1)OCO2 (stereo not drawn) [Cpd 39],0.31 ± 0.04 µM
8,({3-[(1-Benzoyl-piperidin-4-ylamino)-methyl]-naphthalen-2-ylcarbamoyl}-naphthalen-1-yl-methyl)-phosphonic acid [Cpd 44],0.35 ± 0.22 µM
9,"O=C(Nc1ccc2ccccc2c1)C(c1csc2ccc(Cl)cc12)S(=O)(=O)O (stereo not drawn) [Cpd 50, [(5-Chloro-benzo[b]thiophen-3-yl)-(naphthalen-2-ylcarbamoyl)-methyl]-sulfonic acid]",0.43 ± 0.15 µM
10,"O=C(Nc1ccccc1)Oc1cc2ccccc2cc1NC(=O)C(c1cccc2ccccc12)P(=O)(O)O (stereo not drawn) [Cpd 95, [Naphthalen-1-yl-(3-phenylcarbamoyloxy-naphthalen-2-yl-carbamoyl)-methyl]-phosphonic acid]",2.8 µM
11,Cn1cc(C(C(=O)Nc2ccc3ccccc3c2)P(=O)(O)O)c2cc(C#N)ccc21 (stereo not drawn) [Cpd 65],0.84 ± 0.19 µM
12,O=C(Nc1ccc2ccccc2c1)C(c1cn(CC2CC2)c2ccccc12)P(=O)(O)O (stereo not drawn) [Cpd 62],0.82 ± 0.5 µM
13,O=C(Nc1ccc2[nH]ccc2c1)C(c1cccc2ccccc12)P(=O)(O)O (stereo not drawn) [Cpd 129],7.4 µM
14,"O=C(Nc1cc2ccccc2cc1C(=O)N1CCC(n2c(=O)[nH]c3ccc(Cl)cc32)CC1)C(c1cccc2ccccc12)P(=O)(O)O (stereo not drawn) [Cpd 60, ({3-[4-(6-Chloro-2-oxo-2,3-dihydro-benzoimidazol-1-yl)-piperidine-1-carbonyl]-naphthalen-2-ylcarbamoyl}-naphthalen-1-yl-methyl)-phosphonic acid]",0.663 µM
15,Nc1ccc(/C=C/NC(=O)C(c2csc3ccc(Cl)cc23)P(=O)(O)O)cc1 (stereo not drawn) [Cpd 12],0.038 ± 0.013 µM
16,O=C(Nc1cc2ccccc2cc1C(=O)N1CCC(CCc2ccccc2)C1)C(c1cccc2ccccc12)P(=O)(O)O (stereo not drawn) [Cpd 54],0.51 ± 0.124 µM
17,"Cn1cc(C(C(=O)Nc2ccc3ccccc3c2)P(=O)(O)O)c2c(Cl)cccc21 (stereo not drawn) [Cpd 63, [(4-Chloro-1-methyl-1H-indol-3-yl)-(naphthalen-2-ylcarbamoyl)-methyl]-phosphonic acid]",0.83 ± 0.18 µM
18,CP(=O)(O)C(C(=O)N/C=C/c1c(F)cccc1F)c1csc2ccc(Cl)cc12 (stereo not drawn) [Cpd 156],0.036 ± 0.01 µM
19,CN(CCc1ccccc1)Cc1cc2ccccc2cc1NC(=O)C(c1cccc2ccccc12)P(=O)(O)O (stereo not drawn) [Cpd 126],7 µM

row,Compound,IC50
1,"O=C(NCc1ccccc1)OCc1cc2ccccc2cc1NC(=O)C(c1cccc2ccccc12)P(=O)(O)O (stereo not drawn) [Cpd 72, [(3-Benzylcarbamoyloxymethyl-naphthalen-2-ylcarbamoyl)-naphthalen-1-yl-methyl]-phosphonic acid]",1.3 ± 0.61 µM
2,CP(=O)(O)C(C(=O)N/C=C/c1cccc(F)c1F)c1csc2ccc(Cl)cc12 (stereo not drawn) [Cpd 163],0.017 µM
3,CP(=O)(O)C(C(=O)Nc1cc2ccccc2o1)c1csc2ccc(Cl)cc12 (stereo not drawn) [Cpd 146],0.11 µM
4,"Nc1nc2ccc(NC(=O)C(c3csc4ccc(Cl)cc34)P(=O)(O)O)cc2s1 (stereo not drawn) [Cpd 69, [(5-Chloro-benzo[b]thiophen-3-yl)-(2-amino-4-benzothioazol-6-ylcarbamoyl)-methyl]-phosphonic acid]",0.93 ± 0.95 µM
5,CC1CCCC(NCc2cc3ccccc3cc2NC(=O)C(c2cccc3ccccc23)P(=O)(O)O)C1 (stereo not drawn) [Cpd 90],2.15 µM
6,O=C(Nc1cc2ccccc2cc1C(=O)N1CCC2(CC1)C(=O)NCN2c1ccccc1)C(c1cccc2ccccc12)P(=O)(O)O (stereo not drawn) [Cpd 104],3.88 ± 2.41 µM
7,O=C(Nc1ccc2ccccc2c1)C(c1cccc2c1ccn2-c1ccccc1)P(=O)(O)O (stereo not drawn) [Cpd 128],7.3 µM
8,COCCCP(=O)(O)C(C(=O)Nc1ccc2ccccc2c1)c1csc2ccc(Cl)cc12 (stereo not drawn) [Cpd 34],0.22 ± 0.01 µM
9,CP(=O)(O)C(C(=O)N/C=C/c1cc(F)c(F)c(F)c1)c1csc2ccc(Cl)cc12 (stereo not drawn) [Cpd 16],0.055 ± 0.005 µM
10,O=C(Nc1cc2ccccc2cc1C(=O)N1CCC(n2c(=O)[nH]c3ccccc32)CC1)C(c1cccc2ccccc12)P(=O)(O)O (stereo not drawn) [Cpd 93],2.7 µM
11,O=C(Nc1cc2ccccc2cc1C(=O)N1CCC(n2nnc3ccccc32)CC1)C(c1cccc2ccccc12)P(=O)(O)O (stereo not drawn) [Cpd 100],3 ± 1.43 µM
12,[(5-Chloro-benzo[b]thiophen-3-yl)-(naphthalen-2-ylcarbamoyl)-methyl]-carbamate [Cpd 80],1.65 ± 0.68 µM
13,O=C(Nc1cc2ccccc2cc1CNCCCCCO)C(c1cccc2ccccc12)P(=O)(O)O (stereo not drawn) [Cpd 133],8.08 ± 3.15 µM
14,CP(=O)(O)C(C(=O)N/C=C/c1cc(F)cc(F)c1)c1csc2ccc(Cl)cc12 (stereo not drawn) [Cpd 162],0.009 µM
15,COc1cc(/C=C/NC(=O)C(c2csc3ccc(Cl)cc23)P(C)(=O)O)cc(OC)c1 (stereo not drawn) [Cpd 168],0.0059 ± 0.01 µM
16,O=C(COc1cc2ccccc2cc1NC(=O)C(c1cccc2ccccc12)P(=O)(O)O)NCCCc1ccccc1 (stereo not drawn) [Cpd 130],7.44 ± 3.73 µM
17,CP(=O)(O)C(C(=O)N/C=C/c1ccccc1Cl)c1csc2ccc(Cl)cc12 (stereo not drawn) [Cpd 160],0.065 ± 0.02 µM
18,O=C(Nc1ccc2ccccc2c1)C(c1csc2ccc(F)cc12)P(=O)(O)O (stereo not drawn) [Cpd 10],0.029 ± 0.01 µM
19,CP(=O)(O)C(C(=O)N/C=C/c1ccc(F)cc1F)c1csc2ccc(Cl)cc12 (stereo not drawn) [Cpd 171],0.025 ± 0.01 µM
